# ChEMBL document CHEMBL1135136, “Carbonic anhydrase inhibitors. Preparation of potent sulfonamides inhibitors incorporating bile acid tails” (Bioorg Med Chem Lett, 2002)
# Where “and” joins values, the source holds several entries; their conditions need not be identical. Identical values can stand only once.
# Legend:
# Oryctolagus cuniculus [1] = species: Oryctolagus cuniculus
# Description: (§1) Tested for level of sulfonamide in red blood cells of albino rabbits at 120 min post-administration of 50 mg/kg sulfonamides
# Carbonic anhydrase 1 = Carbonic anhydrase 1 (Homo sapiens, UniProt P00915)
# Description: Inhibitory activity against human recombinant carbonic anhydrase I (CA1)
# Carbonic anhydrase 4 = molecular target: T1, Carbonic anhydrase 4 (Bos taurus, UniProt Q95323)
# T1 sequence (Q95323 whole entry): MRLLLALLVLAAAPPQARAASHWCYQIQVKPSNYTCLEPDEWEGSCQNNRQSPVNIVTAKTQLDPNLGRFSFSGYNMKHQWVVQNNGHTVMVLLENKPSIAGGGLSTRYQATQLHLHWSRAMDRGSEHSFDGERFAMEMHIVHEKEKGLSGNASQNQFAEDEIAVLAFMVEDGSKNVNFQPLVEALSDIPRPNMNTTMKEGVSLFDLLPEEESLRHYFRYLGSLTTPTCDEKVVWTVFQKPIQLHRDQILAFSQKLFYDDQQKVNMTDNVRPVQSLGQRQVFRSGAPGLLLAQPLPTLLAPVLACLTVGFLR
# Description: Inhibitory activity against bovine carbonic anhydrase IV (CA4), obtained from bovine lung microsomes
# Oryctolagus cuniculus [2] = species: Oryctolagus cuniculus; remark: listed apart in the source
# Description: Tested for level of sulfonamide in red blood cells of albino rabbits at 60 min post-administration of 50 mg/kg sulfonamides
# Oryctolagus cuniculus [3] = species: Oryctolagus cuniculus; remark: listed apart in the source
# Description: as §1
# Carbonic anhydrase 2 = Carbonic anhydrase 2 (Homo sapiens, UniProt P00918)
# Description: Inhibitory activity against human recombinant carbonic anhydrase II (CA2)
# Chain of Carbonic anhydrase 1 (P00915 whole entry): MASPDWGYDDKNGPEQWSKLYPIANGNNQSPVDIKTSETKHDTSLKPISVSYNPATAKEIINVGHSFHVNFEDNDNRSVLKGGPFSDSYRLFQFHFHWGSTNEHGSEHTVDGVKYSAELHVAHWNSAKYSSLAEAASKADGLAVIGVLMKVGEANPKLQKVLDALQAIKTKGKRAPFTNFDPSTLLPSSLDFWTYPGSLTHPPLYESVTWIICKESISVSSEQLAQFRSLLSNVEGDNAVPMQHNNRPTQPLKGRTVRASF
Structure (SMILES),Level (Oryctolagus cuniculus [1]) [µM],Ki (Carbonic anhydrase 1) [nM],Ki (Carbonic anhydrase 4) [nM],Level (Oryctolagus cuniculus [2]),Level (Oryctolagus cuniculus [3]) [µM],Ki (Carbonic anhydrase 2) [nM]
C[C@H](CCC(=O)Nc1nnc(S(N)(=O)=O)s1)[C@H]1CC[C@H]2[C@@H]3C(=O)C[C@@H]4CC(=O)CC[C@]4(C)[C@H]3CC(=O)[C@]12C,151,41,9,155 µM and 162 µM,159,0.5
C[C@H](CCC(=O)Nc1cccc(S(N)(=O)=O)c1)[C@H]1CC[C@H]2[C@@H]3[C@H](O)C[C@@H]4C[C@H](O)CC[C@]4(C)[C@H]3C[C@H](O)[C@]12C,–,23000,1350,–,–,218
C[C@H](CCC(=O)Nc1ccc(S(N)(=O)=O)cc1)[C@H]1CC[C@H]2[C@@H]3CC[C@@H]4C[C@H](O)CC[C@]4(C)[C@H]3C[C@H](O)[C@]12C,–,12000,355,–,–,210
C[C@H](CCC(=O)OCCOc1ccc2nc(S(N)(=O)=O)sc2c1)[C@H]1CC[C@H]2[C@@H]3CC[C@@H]4C[C@H](O)CC[C@]4(C)[C@H]3CC[C@]12C,–,36,8,–,–,1.4
C[C@H](CCC(=O)OCCc1ccc(S(N)(=O)=O)cc1)[C@H]1CC[C@H]2[C@@H]3[C@H](O)C[C@@H]4C[C@H](O)CC[C@]4(C)[C@H]3CC[C@]12C,–,1100,320,–,–,90
C[C@H](CCC(=O)Nc1ccc(S(N)(=O)=O)cc1)[C@H]1CC[C@H]2[C@@H]3CC[C@@H]4C[C@H](O)CC[C@]4(C)[C@H]3CC[C@]12C,–,6300,280,–,–,106
C[C@H](CCC(=O)NCCC(=O)Nc1nnc(S(N)(=O)=O)s1)[C@H]1CC[C@H]2[C@@H]3[C@H](O)C[C@@H]4C[C@H](O)CC[C@]4(C)[C@H]3CC[C@]12C,–,268,45,–,–,2
C[C@H](CCC(=O)Nc1ccc(S(N)(=O)=O)cc1F)[C@H]1CC[C@H]2[C@@H]3C(=O)C[C@@H]4CC(=O)CC[C@]4(C)[C@H]3CC(=O)[C@]12C,–,210,28,–,–,15
C[C@H](CCC(=O)Nc1ccc(S(N)(=O)=O)cc1I)[C@H]1CC[C@H]2[C@@H]3[C@@H](O)C[C@@H]4C[C@H](O)CC[C@]4(C)[C@H]3CC[C@]12C,–,67,20,–,–,13
C[C@H](CCC(=O)OCCc1ccc(S(N)(=O)=O)cc1)[C@H]1CC[C@H]2[C@@H]3C(=O)C[C@@H]4CC(=O)CC[C@]4(C)[C@H]3CC(=O)[C@]12C,–,415,123,–,–,50
C[C@H](CCC(=O)Nc1ccc(S(N)(=O)=O)cc1I)[C@H]1CC[C@H]2[C@@H]3[C@H](O)C[C@@H]4C[C@H](O)CC[C@]4(C)[C@H]3CC[C@]12C,–,521,110,–,–,55
C[C@H](CCC(=O)Nc1ccc(S(N)(=O)=O)cc1Br)[C@H]1CC[C@H]2[C@@H]3[C@H](O)C[C@@H]4C[C@H](O)CC[C@]4(C)[C@H]3CC[C@]12C,–,617,53,–,–,34
C[C@H](CCC(=O)NCc1ccc(S(N)(=O)=O)cc1)[C@H]1CC[C@H]2[C@@H]3CC[C@@H]4C[C@H](O)CC[C@]4(C)[C@H]3CC[C@]12C,–,910,83,–,–,48
C[C@H](CCC(=O)/N=c1/sc(S(N)(=O)=O)nn1C)[C@H]1CC[C@H]2[C@@H]3[C@H](O)C[C@@H]4C[C@H](O)CC[C@]4(C)[C@H]3C[C@H](O)[C@]12C,–,700,115,–,–,12
C[C@H](CCC(=O)Nc1ccc2nc(S(N)(=O)=O)sc2c1)[C@H]1CC[C@H]2[C@@H]3CC[C@@H]4C[C@H](O)CC[C@]4(C)[C@H]3C[C@H](O)[C@]12C,–,56,12,–,–,6.5
C[C@H](CCC(=O)Nc1c(S(N)(=O)=O)cc(S(N)(=O)=O)c(Cl)c1Cl)[C@H]1CC[C@H]2[C@@H]3C(=O)C[C@@H]4CC(=O)CC[C@]4(C)[C@H]3CC(=O)[C@]12C,–,45,24,–,–,9
C[C@H](CCC(=O)Nc1cc(Cl)c(S(N)(=O)=O)cc1S(N)(=O)=O)[C@H]1CC[C@H]2[C@@H]3CC[C@@H]4C[C@H](O)CC[C@]4(C)[C@H]3C[C@H](O)[C@]12C,–,225,121,–,–,55
C[C@H](CCC(=O)Nc1ccc(S(N)(=O)=O)cc1Br)[C@H]1CC[C@H]2[C@@H]3[C@H](O)C[C@@H]4C[C@H](O)CC[C@]4(C)[C@H]3C[C@H](O)[C@]12C,–,600,60,–,–,35

Structure (SMILES),Level (Oryctolagus cuniculus [1]) [µM],Ki (Carbonic anhydrase 1) [nM],Ki (Carbonic anhydrase 4) [nM],Level (Oryctolagus cuniculus [2]),Level (Oryctolagus cuniculus [3]) [µM],Ki (Carbonic anhydrase 2) [nM]
C[C@H](CCC(=O)Nc1ccc(S(N)(=O)=O)cc1Br)[C@H]1CC[C@H]2[C@@H]3C(=O)C[C@@H]4CC(=O)CC[C@]4(C)[C@H]3CC(=O)[C@]12C,–,66,28,–,–,9
C[C@H](CCC(=O)NCCC(=O)Nc1nnc(S(N)(=O)=O)s1)[C@H]1CC[C@H]2[C@@H]3CC[C@@H]4C[C@H](O)CC[C@]4(C)[C@H]3C[C@H](O)[C@]12C,–,200,30,–,–,2.1
C[C@H](CCC(=O)NCCc1ccc(S(N)(=O)=O)cc1)[C@H]1CC[C@H]2[C@@H]3CC[C@@H]4C[C@H](O)CC[C@]4(C)[C@H]3C[C@H](O)[C@]12C,–,1500,245,–,–,77
C[C@H](CCC(=O)/N=c1\sc(S(N)(=O)=O)nn1C)[C@H]1CC[C@H]2[C@@H]3[C@@H](O)C[C@@H]4C[C@H](O)CC[C@]4(C)[C@H]3CC[C@]12C,–,54,17,–,–,2
C[C@H](CCC(=O)/N=c1\sc(S(N)(=O)=O)nn1C)[C@H]1CC[C@H]2[C@@H]3CC[C@@H]4C[C@H](O)CC[C@]4(C)[C@H]3C[C@H](O)[C@]12C,–,240,63,–,–,11
C[C@H](CCC(=O)NCCc1ccc(S(N)(=O)=O)cc1)[C@H]1CC[C@H]2[C@@H]3[C@@H](O)C[C@@H]4C[C@H](O)CC[C@]4(C)[C@H]3CC[C@]12C,–,295,34,–,–,14
C[C@H](CCC(=O)Oc1ccc2nc(S(N)(=O)=O)sc2c1)[C@H]1CC[C@H]2[C@@H]3C(=O)C[C@@H]4CC(=O)CC[C@]4(C)[C@H]3CC(=O)[C@]12C,158,33,5,156 µM and 159 µM,163,0.6
C[C@H](CCC(=O)Nc1nnc(S(N)(=O)=O)s1)[C@H]1CC[C@H]2[C@@H]3[C@H](O)C[C@@H]4C[C@H](O)CC[C@]4(C)[C@H]3C[C@H](O)[C@]12C,–,420,205,–,–,50
C[C@H](CCC(=O)Nc1ccccc1S(N)(=O)=O)[C@H]1CC[C@H]2[C@@H]3[C@@H](O)C[C@@H]4C[C@H](O)CC[C@]4(C)[C@H]3CC[C@]12C,–,8400,500,–,–,180
C[C@H](CCC(=O)Nc1ccccc1S(N)(=O)=O)[C@H]1CC[C@H]2[C@@H]3CC[C@@H]4C[C@H](O)CC[C@]4(C)[C@H]3C[C@H](O)[C@]12C,–,20100,975,–,–,280
C[C@H](CCC(=O)OCCc1ccc(S(N)(=O)=O)cc1)[C@H]1CC[C@H]2[C@@H]3[C@H](O)C[C@@H]4C[C@H](O)CC[C@]4(C)[C@H]3C[C@H](O)[C@]12C,–,1150,300,–,–,80
C[C@H](CCC(=O)NCc1ccc(S(N)(=O)=O)cc1)[C@H]1CC[C@H]2[C@@H]3[C@H](O)C[C@@H]4C[C@H](O)CC[C@]4(C)[C@H]3C[C@H](O)[C@]12C,–,3780,254,–,–,120
C[C@H](CCC(=O)Nc1c(S(N)(=O)=O)cc(S(N)(=O)=O)c(Cl)c1Cl)[C@H]1CC[C@H]2[C@@H]3CC[C@@H]4C[C@H](O)CC[C@]4(C)[C@H]3C[C@H](O)[C@]12C,–,285,100,–,–,20
C[C@H](CCC(=O)OCCOc1ccc2nc(S(N)(=O)=O)sc2c1)[C@H]1CC[C@H]2[C@@H]3[C@@H](O)C[C@@H]4C[C@H](O)CC[C@]4(C)[C@H]3CC[C@]12C,–,30,5,–,–,0.6
C[C@H](CCC(=O)Nc1ccc(S(N)(=O)=O)cc1I)[C@H]1CC[C@H]2[C@@H]3[C@H](O)C[C@@H]4C[C@H](O)CC[C@]4(C)[C@H]3C[C@H](O)[C@]12C,–,510,104,–,–,53
C[C@H](CCC(=O)OCc1ccc(S(N)(=O)=O)cc1)[C@H]1CC[C@H]2[C@@H]3CC[C@@H]4C[C@H](O)CC[C@]4(C)[C@H]3C[C@H](O)[C@]12C,–,1000,350,–,–,106
C[C@H](CCC(=O)Nc1ccc2nc(S(N)(=O)=O)sc2c1)[C@H]1CC[C@H]2[C@@H]3[C@H](O)C[C@@H]4C[C@H](O)CC[C@]4(C)[C@H]3C[C@H](O)[C@]12C,–,35,10,–,–,5
C[C@H](CCC(=O)Nc1ccc(S(N)(=O)=O)cc1I)[C@H]1CC[C@H]2[C@@H]3C(=O)C[C@@H]4CC(=O)CC[C@]4(C)[C@H]3CC(=O)[C@]12C,–,61,19,–,–,10
